Legend:
[1] = test system: patients with symptomatic oHCM; assay: SEQUOIA-HCM secondary analysis: global remodelling response across five domains; assay type: in vivo, human
Experimental: SEQUOIA-HCM recruited patients with symptomatic oHCM (New York Heart Association [NYHA]≥class 2, baseline pVO2 of ≤90% of predicted, respiratory exchange ratio [RER] of ≥1.05). Patients were randomized 1:1 to aficamten (5-20 mg daily) or placebo, and doses were adjusted during the first 6 weeks to achieve relief from obstruction (LVOT-G<30 mmHg) while maintaining left ventricular ejection fraction (LVEF) ≥50%, for 24 weeks. In this secondary analysis, remodelling response was assessed across five domains including: 1) left atrial volume index (LAVI) graded as normal (16-34 mL/m^2), mild (35-41 mL/m^2), moderate (42-48 mL/m^2), severe enlargement (>48 mL/m^2); 2) presence of left ventricular hypertrophy (LVH) with strain pattern on electrocardiogram (EKG) assessed by core lab, 3) Hyperdynamic (≥72) LVEF by core lab; 4)N-terminal brain natriuretic peptide (NT-proBNP) improvement of ≥50%, and; and 5) decrease of maximal wall thickness (MWT) ≥1.5 mm.

[2] = test system: patients with symptomatic oHCM; assay: SEQUOIA-HCM cardiovascular magnetic resonance (CMR) substudy; assay type: in vivo, human
Text: A further exploratory objective of this trial was to evaluate the effect of aficamten on left ventricular mass, function, and structure by cardiac magnetic resonance (CMR) imaging, as determined by changes from baseline to Week 24 in CMR measurements of left ventricular (LV) mass index, LVEF, septal and free wall thickness, left […] volume index, LVESV, and LVEDV. Cardiac Magnetic Resonance. A CMR imaging sub-study assessed the effects of administration of aficamten dosing on cardiac morphology, function, and fibrosis in approximately 40 oHCM patients who were eligible and consented to participate. CMR was performed during screening period and Week 24. […] Effect of Aficamten on Cardiac Structure and Function in Patients with Obstructive Hypertrophic Cardiomyopathy. For some patients with HCM, adverse remodeling of cardiac structure and function occur over time and are associated with increased risk of adverse events, including heart failure, sudden death and atrial fibrillation. Eligible participants enrolled in SEQUOIA-HCM (the study of Example 8), were offered enrolment in the cardiovascular magnetic resonance (CMR) substudy with CMR performed at baseline and at Week 24. Image analysis was performed in a blinded fashion by a core laboratory.

[3] = CMR Cohort N = 57 (Aficamten N = 25), Baseline
[4] = CMR Cohort N = 57 (Aficamten N = 25), Week 24
[5] = CMR Measurements, CMR Cohort N = 57 (Aficamten N = 25), Baseline
[6] = CMR Measurements, CMR Cohort N = 57 (Aficamten N = 25), Week 24
[7] = CMR Measurements, CMR Cohort N = 57, vs placebo
[8] = Echo Measurements, CMR Cohort N = 57 (Aficamten N = 25), Baseline
[9] = Echo Measurements, CMR Cohort N = 57 (Aficamten N = 25), Week 24
[10] = Echo Measurements, CMR Cohort N = 57, vs placebo
[11] = baseline to week 24, vs placebo

CCc1nc(-c2ccc3c(c2)CC[C@H]3NC(=O)c2cnn(C)c2)no1 [aficamten, (R)—N-(5-(5-ethyl-1,2,4-oxadiazol-3-yl)-2,3-dihydro-1H-inden-1-yl)-1-methyl-1H-pyrazole-4-carboxamide]
patients with beneficial remodelling in at least one of five domains ([1]; 142 aficamten treated patients): 84% | patients with decrease by ≥50% in NT-proBNP ([1]; aficamten): 81.7% | patients with improvement in MWT (decrease ≥1.5 mm) ([1]; aficamten): 47.9% | patients with resolution of hyperdynamic LVEF ([1]; aficamten): 35.2% | reduction in prevalence of LVH with strain pattern on EKG, patients ([1]; aficamten): 19.0% | patients with improvement by one category in LAVI ([1]; among patients with abnormal LAVI (>34 mL/m^2) at baseline, 44/94): 46.8% | number needed to treat to achieve beneficial remodelling ([1]; vs placebo): 2.2 | LGE (% of LV mass) (CMR) ([2]; Baseline, N = 21): 2.0 % of LV mass | LGE Mass (CMR) ([2]; Baseline, N = 21): 3.2 g | Mitral Regurgitation Fraction (CMR) ([2]; Baseline, N = 21): 24% | Mitral Regurgitation Volume (CMR) ([2]; Baseline, N = 21): 22 mL | NT-proBNP, median ([2]; Baseline, N = 21): 708 pg/mL | NYHA Class II, patients ([2]; Baseline, N = 21): 67% | NYHA Class III, patients ([2]; Baseline, N = 21): 33% | Absolute myocyte mass index (CMR) ([2]; Baseline, N = 21, mean ± SD): 84 ± 25 g/m^2 | Echo LVOT Gradient at Rest ([2]; Baseline, N = 21, mean ± SD): 55 ± 32 mm Hg | Echo LVOT Gradient with Valsalva ([2]; Baseline, N = 21, mean ± SD): 85 ± 45 mm Hg | LA Volume Index (CMR) ([2]; Baseline, N = 21, mean ± SD): 68 ± 19 mL/m^2 | LV Ejection Fraction (CMR) ([2]; Baseline, N = 21, mean ± SD): 77.4 ± 5.6% | LV End Diastolic Volume Index (CMR) ([2]; Baseline, N = 21, mean ± SD): 67 ± 15 mL/m^2 | LV End Systolic Volume Index (CMR) ([2]; Baseline, N = 21, mean ± SD): 15.3 ± 5.9 mL/m^2 | LV Extracellular Volume Fraction (CMR) ([2]; Baseline, N = 21, mean ± SD): 26.7 ± 2.7% | LV Mass Index (CMR) ([2]; Baseline, N = 21, mean ± SD): 113 ± 33 g/m^2 | LV Maximal Wall Thickness (CMR) ([2]; Baseline, N = 21, mean ± SD): 19.3 ± 4.3 mm | LV Native T1 (CMR) ([2]; Baseline, N = 21, mean ± SD): 1066 ± 121 ms | LV extracellular volume mass index (CMR) ([2]; Baseline, N = 21, mean ± SD): 31 ± 10 %/g/m^2 | Peak oxygen consumption, pVO2 ([2]; Baseline, N = 21, mean ± SD): 20.1 ± 4.4 mL/kg/min | NT-proBNP, median [2, 3]: 708 pg/mL | Peak oxygen consumption, pVO2 [2, 3]: 19.8 ± 4.7 mL/kg/min | Improvement in NYHA by ≥1 FC, n (%) [2, 4]: 15 (60.0) n (%) | NT-proBNP, median [2, 4]: 81 pg/mL | Peak oxygen consumption, pVO2 [2, 4]: 21.0 ± 4.9 mL/kg/min | Improvement in NYHA by ≥1 FC, Treatment Effect, OR ([2]; CMR Cohort N = 57, Week 24, vs placebo): OR 3.00 | NT-proBNP, Treatment Effect ([2]; CMR Cohort N = 57, vs placebo): -85 pg/mL | Peak oxygen consumption, pVO2, Treatment Effect ([2]; CMR Cohort N = 57, vs placebo): 1.2 mL/kg/min | LA Volume Index [2, 5]: 68 ± 19 mL/m^2 | LV Ejection Fraction [2, 5]: 77.4 ± 5.6% | LV Mass Index [2, 5]: 113 ± 33 g/m^2 | LV Maximal Wall Thickness [2, 5]: 19.3 ± 4.3 mm | LA Volume Index [2, 6]: 52 ± 14 mL/m^2 | LV Ejection Fraction [2, 6]: 73.8 ± 5.9% | LV Mass Index [2, 6]: 103 ± 28 g/m^2 | LV Maximal Wall Thickness [2, 6]: 17.8 ± 4.5 mm | LA Volume Index, Treatment Effect [2, 7]: −13 mL/m^2 | LV Ejection Fraction, Treatment Effect [2, 7]: −2.6% | LV Mass Index, Treatment Effect [2, 7]: −15 g/m^2 | LV Maximal Wall Thickness, Treatment Effect [2, 7]: −2.1 mm | NT-proBNP, change relative to placebo ([2]; CMR substudy patients, Week 24): −85% | echocardiographic Valsalva LVOT-G, Δ least squares mean relative to placebo ([2]; CMR substudy patients, Week 24): −50 mm Hg | echocardiographic resting LVOT-G, Δ least squares mean relative to placebo ([2]; CMR substudy patients, Week 24): −46 mm Hg | LA Volume Index [2, 8]: 40 ± 11 mL/m^2 | LV Ejection Fraction [2, 8]: 74.3 ± 4.7% | LV Mass Index [2, 8]: 126 ± 22 g/m2 | LV Maximal Wall Thickness [2, 8]: 20.6 ± 2.7 mm | LVOT gradient at rest [2, 8]: 55 ± 30 mmHg | LVOT gradient with Valsalva [2, 8]: 84 ± 42 mmHg | LA Volume Index [2, 9]: 39 ± 10 mL/m^2 | LV Ejection Fraction [2, 9]: 68.2 ± 7.8% | LV Maximal Wall Thickness [2, 9]: 18.7 ± 3.1 mm | LVOT gradient at rest [2, 9]: 25 ± 25 mmHg | LVOT gradient with Valsalva [2, 9]: 38 ± 30 mmHg | LA Volume Index, Treatment Effect [2, 10]: −1 mL/m^2 | LV Ejection Fraction, Treatment Effect [2, 10]: −3.6% | LV Mass Index, Treatment Effect [2, 10]: −10 g/m2 | LV Maximal Wall Thickness, Treatment Effect [2, 10]: −1.5 mm | LVOT gradient at rest, Treatment Effect [2, 10]: −38 mmHg | LVOT gradient with Valsalva, Treatment Effect [2, 10]: −47 mmHg | CMR LV end-diastolic and end-systolic volumes ([2]; Week 24): no significant change | CMR LV mass index, Δ least squares mean relative to placebo ([2]; Week 24): −15 g/m^2 | CMR left atrial volume index, Δ least squares mean relative to placebo ([2]; Week 24): −13 mL/m^2 | CMR maximal LV wall thickness, Δ least squares mean relative to placebo ([2]; Week 24): −2.1 mm | CMR native Tl relaxation time, Δ least squares mean relative to placebo ([2]; Week 24): -37 ms | LV extracellular volume fraction [ECV] ([2]; Week 24): 0.7% | LV replacement fibrosis, late gadolinium enhancement [LGE] mass ([2]; Week 24): -0.7 g | LGE (% of LV mass) (CMR) ([2]; Week 24, N = 21): 1.4 % of LV mass | LGE Mass (CMR) ([2]; Week 24, N = 21): 1.5 g | Mitral Regurgitation Fraction (CMR) ([2]; Week 24, N = 21): 13% | Mitral Regurgitation Volume (CMR) ([2]; Week 24, N = 21): 12 mL | NT-proBNP, median ([2]; Week 24, N = 21): 79 pg/mL | NYHA Class I, patients ([2]; Week 24, N = 21): 57% | NYHA Class II, patients ([2]; Week 24, N = 21): 29% | NYHA Class III, patients ([2]; Week 24, N = 21): 14% | Absolute myocyte mass index (CMR) ([2]; Week 24, N = 21, mean ± SD): 75 ± 22 g/m^2 | Echo LVOT Gradient at Rest ([2]; Week 24, N = 21, mean ± SD): 21 ± 18 mm Hg | Echo LVOT Gradient with Valsalva ([2]; Week 24, N = 21, mean ± SD): 35 ± 26 mm Hg | LA Volume Index (CMR) ([2]; Week 24, N = 21, mean ± SD): 52 ± 14 mL/m^2 | LV Ejection Fraction (CMR) ([2]; Week 24, N = 21, mean ± SD): 73.8 ± 5.9% | LV End Diastolic Volume Index (CMR) ([2]; Week 24, N = 21, mean ± SD): 60 ± 11 mL/m^2 | LV End Systolic Volume Index (CMR) ([2]; Week 24, N = 21, mean ± SD): 16.0 ± 5.1 mL/m^2 | LV Extracellular Volume Fraction (CMR) ([2]; Week 24, N = 21, mean ± SD): 27.4 ± 7.1% | LV Mass Index (CMR) ([2]; Week 24, N = 21, mean ± SD): 103 ± 28 g/m^2 | LV Maximal Wall Thickness (CMR) ([2]; Week 24, N = 21, mean ± SD): 17.8 ± 4.5 mm | LV Native T1 (CMR) ([2]; Week 24, N = 21, mean ± SD): 1021 ± 93 ms | LV extracellular volume mass index (CMR) ([2]; Week 24, N = 21, mean ± SD): 29 ± 12 %/g/m^2 | Peak oxygen consumption, pVO2 ([2]; Week 24, N = 21, mean ± SD): 21.1 ± 4.7 mL/kg/min | Absolute myocyte mass index (CMR), Treatment Effect (95% CI) [2, 11]: −14 (−23, −4) g/m^2 | Echo LVOT Gradient at Rest, Treatment Effect [2, 11]: −46 mm Hg | Echo LVOT Gradient with Valsalva, Treatment Effect [2, 11]: −50 mm Hg | LA Volume Index (CMR), Treatment Effect [2, 11]: −13 mL/m^2 | LGE (% of LV mass) (CMR), Treatment Effect (95% CI) [2, 11]: −0.4 (−2.1, 1.2) % of LV mass | LGE Mass (CMR), Treatment Effect (95% CI) [2, 11]: −0.7 (−2.9, 1.6) g | LV Ejection Fraction (CMR), Treatment Effect [2, 11]: −2.6% | LV End Diastolic Volume Index (CMR), Treatment Effect [2, 11]: −1 mL/m^2 | LV End Systolic Volume Index (CMR), Treatment Effect [2, 11]: 1.4 mL/m^2 | LV Extracellular Volume Fraction (CMR), Treatment Effect (95% CI) [2, 11]: 0.7 (−2.2, 3.6) % | LV Mass Index (CMR), Treatment Effect [2, 11]: −15 g/m^2 | LV Maximal Wall Thickness (CMR), Treatment Effect [2, 11]: −2.1 mm | LV Native T1 (CMR), Treatment Effect (95% CI) [2, 11]: −37 (−69, −5) ms | LV extracellular volume mass index (CMR), Treatment Effect [2, 11]: −3.9 %/g/m^2 | Mitral Regurgitation Fraction (CMR), Treatment Effect [2, 11]: −6% | Mitral Regurgitation Volume (CMR), Treatment Effect [2, 11]: -7 mL | NT-proBNP, Treatment Effect [2, 11]: −85% | Peak oxygen consumption, pVO2, Treatment Effect [2, 11]: 1.0 mL/kg/min | Treatment Effect ≥1 NYHA Class Improvement [2, 11]: 36%

From patent US20250295639A1, “METHODS FOR TREATING HEART DISEASES” (Cytokinetics, Incorporated, priority 2024, published 2025)
